In brackets after ≈: the same amount, converted by molar mass.
Legend:
[1] = biological target: E. coli RNA polymerase σ^70 holoenzyme (Escherichia coli, UniProt P0A8T7+P0A8V2); experiment: Inhibition of Escherichia coli RNA polymerase (fluorescence-detected); format: biochemical; settings: read-out: IC50 E. coli RNAP
Description: (§1) Fluorescence-detected RNA polymerase assays with E. coli RNA polymerase were performed by a modification of the procedure of Kuhlman et al., 2004 [Kuhlman, P., Duff, H. & Galant, A. (2004) A fluorescence-based assay for multisubunit DNA-dependent RNA polymerases. Anal. Biochem. 324, 183-190]. Reaction mixtures contained (20 μl): 0-100 nM test compound, 75 nM E. coli RNA polymerase σ^70 holoenzyme, 20 nM 384 bp DNA fragment containing the bacteriophage T4 N25 promoter, 100 μM ATP, 100 μM GTP, 100 μM UTP, 100 μM CTP, 50 mM Tris-HCl, pH 8.0, 100 mM KCl, 10 mM MgCl2, 1 mM DTT, 10 μg/ml bovine serum albumin, and 5.5% glycerol. Reaction components other than DNA and NTPs were pre-incubated for 10 min at 37° C. Reactions were carried out by addition of DNA and incubation for 5 min at 37° C., followed by addition of NTPs and incubation for 60 min at 37° C. DNA was removed by addition of 1 μl 5 mM CaCl2 and 2 U DNaseI (Ambion, Inc.), followed by incubation for 90 min at 37° C. RNA was quantified by addition of 100 μl RiboGreen RNA Quantitation Reagent (Invitrogen, Inc.; 1:500 dilution in Tris-HCl, pH 8.0, 1 mM EDTA), followed by incubation for 10 min at 25° C., followed by measurement of fluorescence intensity [excitation wavelength=485 nm and emission wavelength=535 nm; QuantaMaster QM1 spectrofluorometer (PTI, Inc.)].

[2] = biological target: M. tuberculosis RNA polymerase (Mycobacterium tuberculosis, UniProt P9WGY7+P9WGY9); experiment: Inhibition of Mycobacterium tuberculosis RNA polymerase (fluorescence-detected); format: biochemical; settings: read-out: IC50 M. tuberculosis RNAP
Description: as §1
Fluorescence-detected RNA polymerase assays with M. tuberculosis RNA polymerase were performed as in Example 17.1, using reaction mixtures containing (20 μl): 0-100 nM test compound, 75 nM M. tuberculosis RNA polymerase core enzyme, 300 nM M. tuberculosis σ^A, 20 nM 384 bp DNA fragment containing the bacteriophage […] N25 promoter, 100 μM ATP, 100 μM GTP, 100 μM UTP, 100 μM CTP, 40 mM Tris-HCl, pH 8.0, 80 mM NaCl, 5 mM MgCl2, 2.5 mM DTT, and 12.7% glycerol.

S. aureus RNA polymerase = S. aureus RNA polymerase (Staphylococcus aureus, UniProt P47768+Q2G0N5); experiment: Inhibition of Staphylococcus aureus RNA polymerase (fluorescence-detected); format: biochemical; settings: read-out: IC50 S. aureus RNAP
[3] = tested on: Acinetobacter baumannii ATCC 19606; experiment: Inhibition of bacterial growth in culture (MIC, spiral gradient endpoint); format: cell-based; settings: Acinetobacter baumannii, ATCC19606; Mueller-Hinton II agar, 16 h at 37° C.
Source text: (§2) Minimum inhibitory concentrations (MICs) for Staphylococcus aureus ATCC 12600, Enterococcus faecalis ATCC 19433, Acinetobacter baumannii ATCC 19606, and Escherichia coli D21f2tolC were quantified using spiral gradient endpoint assays, essentially as described [Wallace, A. and Corkill, J. (1989) Application of the spiral plating method to study antimicrobial action. J. Microbiol. Meths. […] Int. J. Exp. Clin. Chemother. 3, 31-38; Schalkowsky S. (1994) Measures of susceptibility from a spiral gradient of drug concentrations. Adv. Exp. Med. Biol. 349, 107-120]. Assays employed exponential-gradient plates containing 150 mm×4 mm Mueller-Hinton II cation-adjusted agar and 0.4-100 μg/ml of test compound. Plates were prepared using an Autoplate 4000 spiral plater (Spiral Biotech, Inc.). Saturated overnight cultures were swabbed radially onto plates, and plates were incubated for 16 h at 37° C. For each culture, the streak length was measured using a clear plastic template (Spiral Biotech, Inc.), the test-compound concentration at the streak endpoint was calculated using the program SGE (Spiral Biotech, Inc.), and the MIC was defined as the calculated test-compound concentration at the streak endpoint.

[4] = tested on: Enterococcus faecalis ATCC 19433; experiment: as above; format: cell-based
Source text: as §2

[5] = tested on: Escherichia coli D21f2tolC; experiment: as above; format: cell-based; settings: 16 h, read-out: MIC E. coli D21f2tolC
Source text: as §2

[6] = tested on: Staphylococcus aureus ATCC 12600; experiment: as above; format: cell-based
Source text: as §2

Staphylococcus aureus = experiment: Antibacterial efficacy in mouse model of Staphylococcus aureus systemic infection (peritonitis model); format: in vivo, Swiss Webster mice
Description: (§3) Female Swiss Webster mice were experimentally infected by intraperitoneal administration of 5×10^7 colony forming units of Staphylococcus aureus in 10% hog gastric mucin. Test compounds (2-3 mg/ml in vehicle [9-19% dimethyacetamide/8-16% Cremophor EL in water, v/v]), positive controls (2 mg/ml vancomycin in vehicle), and negative controls (vehicle only and saline only), were administered by intravenous injection into a tail vein 1 h and 5 h post-infection (200 μl per injection). Survival was monitored for 12 h post-infection, or for 24, 48, and 72 h post-infection. At the end of the monitoring period, surviving animals were euthanized.

[7] = Tolerability upon intravenous injection (peritonitis model study); format: in vivo, Swiss Webster mice; settings: daily total doses of at least 30 mg/kg; vehicles containing 9% to 19% dimethylacetamide and 8% to 16% Cremophor EL
Description: as §3

Sequence of E. coli RNA polymerase σ^70 holoenzyme (P0A8V2 whole entry, the tested form may be a part): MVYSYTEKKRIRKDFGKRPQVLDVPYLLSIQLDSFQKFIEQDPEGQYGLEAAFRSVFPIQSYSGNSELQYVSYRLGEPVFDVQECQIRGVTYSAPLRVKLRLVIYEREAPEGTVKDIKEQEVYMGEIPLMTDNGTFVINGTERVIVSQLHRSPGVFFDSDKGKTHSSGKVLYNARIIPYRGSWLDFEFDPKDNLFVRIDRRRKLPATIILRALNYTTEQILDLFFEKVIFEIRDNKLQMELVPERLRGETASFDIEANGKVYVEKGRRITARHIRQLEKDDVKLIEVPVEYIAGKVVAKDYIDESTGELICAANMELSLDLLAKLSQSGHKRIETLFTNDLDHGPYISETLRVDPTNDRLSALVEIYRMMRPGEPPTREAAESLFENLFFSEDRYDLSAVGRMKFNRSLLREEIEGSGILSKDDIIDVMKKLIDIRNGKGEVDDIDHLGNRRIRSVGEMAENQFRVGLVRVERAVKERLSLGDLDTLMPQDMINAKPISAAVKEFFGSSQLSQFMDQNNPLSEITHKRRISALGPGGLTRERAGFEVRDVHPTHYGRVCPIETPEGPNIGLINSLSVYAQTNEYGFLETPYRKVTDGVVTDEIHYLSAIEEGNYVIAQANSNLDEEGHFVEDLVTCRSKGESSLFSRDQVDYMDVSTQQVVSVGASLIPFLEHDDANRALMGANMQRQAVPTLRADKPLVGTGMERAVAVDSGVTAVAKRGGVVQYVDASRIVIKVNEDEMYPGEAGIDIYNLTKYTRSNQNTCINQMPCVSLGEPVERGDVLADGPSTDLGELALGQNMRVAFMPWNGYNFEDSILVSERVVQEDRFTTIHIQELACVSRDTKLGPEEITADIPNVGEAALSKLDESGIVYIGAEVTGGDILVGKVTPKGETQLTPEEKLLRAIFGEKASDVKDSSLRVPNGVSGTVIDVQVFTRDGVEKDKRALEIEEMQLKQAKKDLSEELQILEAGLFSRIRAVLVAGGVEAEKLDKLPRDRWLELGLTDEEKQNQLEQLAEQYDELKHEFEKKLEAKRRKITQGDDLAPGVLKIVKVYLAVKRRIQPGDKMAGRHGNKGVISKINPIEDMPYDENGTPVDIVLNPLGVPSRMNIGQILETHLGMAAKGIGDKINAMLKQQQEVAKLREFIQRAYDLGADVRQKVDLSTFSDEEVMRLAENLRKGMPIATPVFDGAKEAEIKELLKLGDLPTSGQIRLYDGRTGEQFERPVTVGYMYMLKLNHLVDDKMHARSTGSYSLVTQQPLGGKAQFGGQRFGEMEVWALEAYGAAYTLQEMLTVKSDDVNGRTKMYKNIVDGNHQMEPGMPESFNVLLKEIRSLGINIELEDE
Sequence of E. coli RNA polymerase σ^70 holoenzyme (P0A8T7 whole entry, the tested form may be a part): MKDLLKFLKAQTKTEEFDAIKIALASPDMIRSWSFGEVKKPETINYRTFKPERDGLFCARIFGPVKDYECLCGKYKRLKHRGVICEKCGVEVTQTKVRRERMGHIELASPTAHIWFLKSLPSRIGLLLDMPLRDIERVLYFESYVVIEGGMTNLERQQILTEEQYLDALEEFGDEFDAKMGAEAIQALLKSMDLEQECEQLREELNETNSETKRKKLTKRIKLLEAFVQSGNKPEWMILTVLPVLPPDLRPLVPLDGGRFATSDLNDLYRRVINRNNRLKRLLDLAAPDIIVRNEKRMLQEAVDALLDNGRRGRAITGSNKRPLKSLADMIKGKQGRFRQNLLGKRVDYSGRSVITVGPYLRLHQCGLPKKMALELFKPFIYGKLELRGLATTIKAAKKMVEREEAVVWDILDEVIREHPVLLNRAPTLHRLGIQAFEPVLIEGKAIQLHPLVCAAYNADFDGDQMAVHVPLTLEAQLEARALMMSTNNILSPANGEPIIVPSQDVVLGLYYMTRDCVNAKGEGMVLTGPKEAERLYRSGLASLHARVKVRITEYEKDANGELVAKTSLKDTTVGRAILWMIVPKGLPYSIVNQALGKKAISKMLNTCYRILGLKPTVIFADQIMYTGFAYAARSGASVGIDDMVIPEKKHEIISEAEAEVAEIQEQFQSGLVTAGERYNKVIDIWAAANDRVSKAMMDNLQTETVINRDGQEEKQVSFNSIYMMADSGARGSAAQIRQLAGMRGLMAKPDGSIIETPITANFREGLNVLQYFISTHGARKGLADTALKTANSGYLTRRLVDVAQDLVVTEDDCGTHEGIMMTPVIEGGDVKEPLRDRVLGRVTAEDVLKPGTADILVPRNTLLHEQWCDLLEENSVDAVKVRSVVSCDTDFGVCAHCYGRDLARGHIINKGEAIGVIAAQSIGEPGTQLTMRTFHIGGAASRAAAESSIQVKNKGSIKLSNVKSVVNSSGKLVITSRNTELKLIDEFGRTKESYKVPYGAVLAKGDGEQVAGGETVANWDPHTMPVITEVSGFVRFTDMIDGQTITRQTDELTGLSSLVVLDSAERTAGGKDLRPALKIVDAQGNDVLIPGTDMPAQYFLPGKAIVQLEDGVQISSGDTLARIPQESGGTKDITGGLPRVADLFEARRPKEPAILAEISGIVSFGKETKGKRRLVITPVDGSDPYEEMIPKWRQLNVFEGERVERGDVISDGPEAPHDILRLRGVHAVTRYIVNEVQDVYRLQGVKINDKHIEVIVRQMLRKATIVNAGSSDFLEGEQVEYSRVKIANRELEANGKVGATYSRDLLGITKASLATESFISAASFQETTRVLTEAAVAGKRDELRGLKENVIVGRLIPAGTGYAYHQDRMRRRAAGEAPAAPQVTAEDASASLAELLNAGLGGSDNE
Sequence of E. coli RNA polymerase σ^70 holoenzyme (P0A7Z4 whole entry partner, the tested form may be a part): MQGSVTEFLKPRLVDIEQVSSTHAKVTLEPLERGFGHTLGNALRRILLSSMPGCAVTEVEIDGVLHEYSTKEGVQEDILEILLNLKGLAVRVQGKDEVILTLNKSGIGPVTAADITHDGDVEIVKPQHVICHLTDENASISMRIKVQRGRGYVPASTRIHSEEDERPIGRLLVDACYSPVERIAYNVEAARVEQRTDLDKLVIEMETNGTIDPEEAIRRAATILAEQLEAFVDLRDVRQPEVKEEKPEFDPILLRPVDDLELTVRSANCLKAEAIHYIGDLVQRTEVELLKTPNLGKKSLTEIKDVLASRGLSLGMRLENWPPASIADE
Sequence of E. coli RNA polymerase σ^70 holoenzyme (P0A800 whole entry partner, the tested form may be a part): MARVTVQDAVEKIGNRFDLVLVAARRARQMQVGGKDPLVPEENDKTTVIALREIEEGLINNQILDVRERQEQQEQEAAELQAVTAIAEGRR
Sequence of E. coli RNA polymerase σ^70 holoenzyme (P00579 whole entry partner, the tested form may be a part): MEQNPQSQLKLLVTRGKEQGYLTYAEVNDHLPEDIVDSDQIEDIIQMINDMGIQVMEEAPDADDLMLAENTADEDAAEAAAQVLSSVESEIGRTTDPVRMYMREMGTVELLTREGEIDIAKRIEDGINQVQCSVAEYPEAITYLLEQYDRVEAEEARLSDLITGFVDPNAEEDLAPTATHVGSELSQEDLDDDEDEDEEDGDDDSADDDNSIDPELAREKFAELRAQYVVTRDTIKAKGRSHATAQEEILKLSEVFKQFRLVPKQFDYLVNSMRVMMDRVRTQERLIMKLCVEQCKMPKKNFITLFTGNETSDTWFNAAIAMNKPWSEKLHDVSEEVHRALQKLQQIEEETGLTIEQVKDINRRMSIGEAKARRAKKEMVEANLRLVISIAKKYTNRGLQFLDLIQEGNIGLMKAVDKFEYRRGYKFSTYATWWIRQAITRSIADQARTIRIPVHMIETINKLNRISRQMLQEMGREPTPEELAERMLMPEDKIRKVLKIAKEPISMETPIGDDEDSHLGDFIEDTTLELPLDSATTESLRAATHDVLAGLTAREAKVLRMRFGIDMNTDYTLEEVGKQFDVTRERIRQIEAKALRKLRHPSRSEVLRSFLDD

Compound `CCCCC/C(C)=C/C=C(\C)C(=O)c1c(O)cc(CCC/C=C/NC(=O)OC)oc1=O` [compound 5, Methyl ((E)-5-(3-((2E,4E)-2,5-dimethyldeca-2,4-dienoyl)-4-hydroxy-2-oxo-2H-pyran-6-yl)pent-1-en-1-yl)carbamate] has an IC50 [1] of 3.9 nM, an IC50 [2] of 32 nM and an IC50 (S. aureus RNA polymerase) of 15 nM. For the same compound, the MIC [3] was 19 µg/mL (≈ 44 µM), the MIC ([4]; Enterococcus faecalis, ATCC19433, Mueller-Hinton II agar, 16 h at 37° C., read-out: MIC E. faecalis 19433) was 12 µg/mL (≈ 27.8 µM) and the “inhibition of Enterococcus faecalis compared with Myx B and 7-desmethyl-Myx B” value ([4]; summary of Table 3) was “more potently than Myx B and 7-desmethyl-Myx B”. For the same compound, the MIC [5] was 0.076 µg/mL (≈ 0.176 µM), the MIC ([6]; Staphylococcus aureus, ATCC12600, Mueller-Hinton II agar, 16 h at 37° C., read-out: MIC S. aureus 12600) was 0.44 µg/mL (≈ 1.02 µM) and the “inhibition of Staphylococcus aureus compared with Myx B and 7-desmethyl-Myx B” value ([6]; summary of Table 3) was “more potently than Myx B and 7-desmethyl-Myx B”. For the same compound, the 12-hour survival (Staphylococcus aureus; Table 4a, total dose 30 mg/kg iv, 1 h and 5 h post-infection, vehicle 19% dimethylacetamide/8% Cremophor EL/73% water) was 100%, the “effect on survival in a mouse model of Staphylococcus aureus infection (in words)” value (Staphylococcus aureus; summary of Tables 4a-4c) was “increase survival” and the “acute toxicity upon intravenous injection” value [7] was “tolerated without acute toxicity”.

Reference: patent publication US9133155B2, “Antibacterial agents: high-potency myxopyronin derivatives” (Rutgers, The State University of New Jersey, priority 2010, dated 2015)
